Drawing on the kinase profiling compilation of Christmann-Franck et al. (2016), this text covers inhibition of binding and inhibition for six molecules.

Common to all, as to assay: KINOMEscan competition binding
One test concerns ULK3 (mouse). Conditions: compound 10.0 µM; accession and sequence are those of the human protein.
Another test has as its target RPS6KA1 KD1 (human) (UniProt Q15418). The following applies: compound 10.0 µM.
The target of the next test is MAP3K12 (human) (UniProt Q12852). The following applies: compound 10.0 µM.
For the next test, the target named is CSNK1G2 (human) (UniProt P78368). Conditions: compound 10.0 µM.
The target of the next test is MYLK3 (human) (UniProt Q32MK0). Conditions: compound 10.0 µM.
The next test addresses CDK19 (human) (UniProt Q9BWU1). Conditions: compound 10.0 µM.
For another test, the target named is MAP3K5 (human) (UniProt Q99683). The following applies: compound 10.0 µM.
Chain of MAP3K5 (human) (Q99683 whole entry, looked up): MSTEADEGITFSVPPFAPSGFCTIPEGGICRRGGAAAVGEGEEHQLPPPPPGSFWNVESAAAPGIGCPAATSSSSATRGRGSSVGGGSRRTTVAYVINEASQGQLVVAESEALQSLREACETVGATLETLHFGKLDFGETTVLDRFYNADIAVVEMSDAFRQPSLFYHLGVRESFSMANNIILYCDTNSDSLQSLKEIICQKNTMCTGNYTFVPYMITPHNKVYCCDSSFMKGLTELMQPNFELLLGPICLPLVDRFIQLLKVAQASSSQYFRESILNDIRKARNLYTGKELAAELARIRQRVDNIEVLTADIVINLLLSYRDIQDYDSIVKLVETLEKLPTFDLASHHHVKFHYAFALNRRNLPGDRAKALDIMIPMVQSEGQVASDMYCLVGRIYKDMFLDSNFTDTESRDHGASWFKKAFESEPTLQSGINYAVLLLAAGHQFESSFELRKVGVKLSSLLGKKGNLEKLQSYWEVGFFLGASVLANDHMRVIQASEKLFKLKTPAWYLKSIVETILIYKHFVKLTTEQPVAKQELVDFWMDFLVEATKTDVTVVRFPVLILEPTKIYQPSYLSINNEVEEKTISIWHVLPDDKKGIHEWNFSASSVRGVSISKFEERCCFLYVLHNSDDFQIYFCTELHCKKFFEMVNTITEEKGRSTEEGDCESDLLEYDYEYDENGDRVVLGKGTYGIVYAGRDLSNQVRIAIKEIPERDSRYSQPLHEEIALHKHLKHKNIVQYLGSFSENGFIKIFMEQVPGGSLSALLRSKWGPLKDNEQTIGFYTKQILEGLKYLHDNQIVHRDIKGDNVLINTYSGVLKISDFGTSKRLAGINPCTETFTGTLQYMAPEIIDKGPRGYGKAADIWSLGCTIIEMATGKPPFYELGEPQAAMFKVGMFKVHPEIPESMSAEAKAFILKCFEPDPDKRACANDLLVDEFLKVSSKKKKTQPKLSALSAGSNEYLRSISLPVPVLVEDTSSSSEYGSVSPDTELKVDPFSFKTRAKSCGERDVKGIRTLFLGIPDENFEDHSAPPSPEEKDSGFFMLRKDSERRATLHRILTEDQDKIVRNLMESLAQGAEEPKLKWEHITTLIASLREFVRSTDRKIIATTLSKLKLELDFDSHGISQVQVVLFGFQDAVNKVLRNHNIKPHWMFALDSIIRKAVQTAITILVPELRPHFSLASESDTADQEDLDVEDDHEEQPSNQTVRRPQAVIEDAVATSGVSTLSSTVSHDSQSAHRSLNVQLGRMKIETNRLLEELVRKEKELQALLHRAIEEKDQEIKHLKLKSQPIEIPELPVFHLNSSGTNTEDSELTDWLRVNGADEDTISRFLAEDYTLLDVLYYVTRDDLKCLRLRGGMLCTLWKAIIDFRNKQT

Chain of RPS6KA1 KD1 (human) (Q15418 whole entry, looked up): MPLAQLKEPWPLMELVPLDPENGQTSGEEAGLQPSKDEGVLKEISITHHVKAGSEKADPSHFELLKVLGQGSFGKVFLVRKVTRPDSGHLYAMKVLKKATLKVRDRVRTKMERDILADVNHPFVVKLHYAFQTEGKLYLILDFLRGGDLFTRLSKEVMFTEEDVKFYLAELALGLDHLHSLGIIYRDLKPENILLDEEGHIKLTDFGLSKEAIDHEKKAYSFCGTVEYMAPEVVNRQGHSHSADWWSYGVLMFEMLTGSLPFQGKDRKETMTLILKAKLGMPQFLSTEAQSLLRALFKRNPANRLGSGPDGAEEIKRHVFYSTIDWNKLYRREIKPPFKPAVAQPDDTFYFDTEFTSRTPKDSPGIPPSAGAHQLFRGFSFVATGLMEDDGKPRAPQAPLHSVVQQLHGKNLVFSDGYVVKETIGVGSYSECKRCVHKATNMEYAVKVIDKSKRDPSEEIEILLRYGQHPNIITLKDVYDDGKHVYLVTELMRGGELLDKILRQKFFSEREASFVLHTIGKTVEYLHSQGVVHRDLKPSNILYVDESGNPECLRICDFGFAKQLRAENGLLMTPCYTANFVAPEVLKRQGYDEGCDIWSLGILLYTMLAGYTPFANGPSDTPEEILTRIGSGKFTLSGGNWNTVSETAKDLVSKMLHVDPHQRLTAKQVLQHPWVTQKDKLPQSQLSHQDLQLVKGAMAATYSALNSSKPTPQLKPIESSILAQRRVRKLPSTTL
Chain of MAP3K12 (human) (Q12852 whole entry, looked up): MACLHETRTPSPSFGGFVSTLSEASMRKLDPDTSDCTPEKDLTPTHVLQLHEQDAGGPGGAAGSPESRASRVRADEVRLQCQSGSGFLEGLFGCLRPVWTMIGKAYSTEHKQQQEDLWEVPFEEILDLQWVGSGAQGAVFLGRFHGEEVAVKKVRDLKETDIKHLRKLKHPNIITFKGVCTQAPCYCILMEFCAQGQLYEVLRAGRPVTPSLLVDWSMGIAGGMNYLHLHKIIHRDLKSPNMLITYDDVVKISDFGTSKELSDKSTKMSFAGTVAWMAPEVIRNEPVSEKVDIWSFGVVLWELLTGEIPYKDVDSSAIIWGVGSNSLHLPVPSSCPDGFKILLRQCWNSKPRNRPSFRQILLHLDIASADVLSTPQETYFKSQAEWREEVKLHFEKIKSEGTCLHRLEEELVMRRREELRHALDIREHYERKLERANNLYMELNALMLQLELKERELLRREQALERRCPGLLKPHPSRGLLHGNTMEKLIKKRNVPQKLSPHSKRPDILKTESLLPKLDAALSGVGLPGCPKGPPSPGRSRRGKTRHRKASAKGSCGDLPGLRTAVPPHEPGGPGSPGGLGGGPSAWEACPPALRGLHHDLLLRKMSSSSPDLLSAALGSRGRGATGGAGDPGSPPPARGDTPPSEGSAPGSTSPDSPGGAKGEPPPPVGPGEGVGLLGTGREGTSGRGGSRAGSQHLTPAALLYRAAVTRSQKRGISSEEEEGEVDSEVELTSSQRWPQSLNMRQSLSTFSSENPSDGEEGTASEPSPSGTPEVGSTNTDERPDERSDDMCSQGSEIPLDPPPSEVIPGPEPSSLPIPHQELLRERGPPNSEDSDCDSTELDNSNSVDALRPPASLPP
Chain of CSNK1G2 (human) (P78368 whole entry, looked up): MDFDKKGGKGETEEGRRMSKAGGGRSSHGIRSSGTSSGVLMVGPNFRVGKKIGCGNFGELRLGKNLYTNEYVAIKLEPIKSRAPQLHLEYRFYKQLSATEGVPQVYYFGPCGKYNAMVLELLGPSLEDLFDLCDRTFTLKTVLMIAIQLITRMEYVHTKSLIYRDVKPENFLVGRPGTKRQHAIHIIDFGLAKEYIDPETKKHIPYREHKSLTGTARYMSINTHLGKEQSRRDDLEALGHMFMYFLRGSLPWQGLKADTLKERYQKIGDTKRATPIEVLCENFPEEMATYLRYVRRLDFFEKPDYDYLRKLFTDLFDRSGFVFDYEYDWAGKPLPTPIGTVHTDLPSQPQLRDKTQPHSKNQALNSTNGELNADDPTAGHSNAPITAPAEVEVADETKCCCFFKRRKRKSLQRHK
Chain of MYLK3 (human) (Q32MK0 whole entry, looked up): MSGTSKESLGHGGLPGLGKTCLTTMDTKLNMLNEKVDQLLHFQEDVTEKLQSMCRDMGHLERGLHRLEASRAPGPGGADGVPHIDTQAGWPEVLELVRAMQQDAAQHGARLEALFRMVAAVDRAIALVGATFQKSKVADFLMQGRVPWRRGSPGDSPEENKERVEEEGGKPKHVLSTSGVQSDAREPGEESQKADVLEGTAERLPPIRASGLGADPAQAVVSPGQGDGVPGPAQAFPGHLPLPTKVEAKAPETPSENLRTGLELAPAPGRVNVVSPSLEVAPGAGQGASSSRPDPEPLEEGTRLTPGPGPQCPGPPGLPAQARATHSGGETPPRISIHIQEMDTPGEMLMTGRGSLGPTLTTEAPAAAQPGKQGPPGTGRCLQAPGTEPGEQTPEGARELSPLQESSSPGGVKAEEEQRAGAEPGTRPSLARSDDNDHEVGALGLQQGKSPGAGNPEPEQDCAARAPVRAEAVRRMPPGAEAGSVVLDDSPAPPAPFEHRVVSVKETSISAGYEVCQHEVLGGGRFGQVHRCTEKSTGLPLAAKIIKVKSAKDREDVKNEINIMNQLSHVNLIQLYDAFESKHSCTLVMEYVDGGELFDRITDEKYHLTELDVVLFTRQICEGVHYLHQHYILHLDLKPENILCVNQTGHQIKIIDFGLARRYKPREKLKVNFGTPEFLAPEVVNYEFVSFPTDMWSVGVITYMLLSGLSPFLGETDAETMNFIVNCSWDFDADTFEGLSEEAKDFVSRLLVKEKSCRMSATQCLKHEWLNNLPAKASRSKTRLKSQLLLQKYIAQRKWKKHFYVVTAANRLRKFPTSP
Chain of CDK19 (human) (Q9BWU1 whole entry, looked up): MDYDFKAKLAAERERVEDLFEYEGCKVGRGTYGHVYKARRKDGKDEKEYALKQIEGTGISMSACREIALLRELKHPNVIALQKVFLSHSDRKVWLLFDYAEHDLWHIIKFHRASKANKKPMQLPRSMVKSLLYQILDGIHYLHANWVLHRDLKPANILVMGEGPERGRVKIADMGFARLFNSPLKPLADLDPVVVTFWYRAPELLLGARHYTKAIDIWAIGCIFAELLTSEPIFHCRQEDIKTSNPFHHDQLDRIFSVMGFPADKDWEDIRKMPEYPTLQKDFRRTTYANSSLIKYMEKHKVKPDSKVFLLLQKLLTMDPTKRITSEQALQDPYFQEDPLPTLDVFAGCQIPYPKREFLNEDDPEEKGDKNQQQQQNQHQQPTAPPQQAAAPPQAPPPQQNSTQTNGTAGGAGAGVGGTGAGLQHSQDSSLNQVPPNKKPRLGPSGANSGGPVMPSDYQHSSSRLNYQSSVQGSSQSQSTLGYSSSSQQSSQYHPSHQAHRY

In the test on ULK3 (mouse), `N[C@H]1CC[C@H](Nc2nccc(-n3nnc4ccccc43)n2)CC1` gave an inhibition of binding below 50%.
In the case of `O[C@H]1CC[C@H](Nc2nccc(-n3nnc4ccccc43)n2)CC1`, the inhibition of binding at RPS6KA1 KD1 (human) and at CSNK1G2 (human) was below 50% in each case. Moreover, at MAP3K12 (human), the inhibition (in general, the drop in the measured response relative to a control, in per cent) is below 50%.
Take `O=C([C@H]1CC[C@H](Nc2nccc(-n3nnc4ccccc43)n2)CC1)N1CCOCC1`: the inhibition of binding with ULK3 (mouse) is below 50%.
Turning to `O[C@H]1CC[C@H](Nc2nccc(-n3ncc4ccccc43)n2)CC1`, the inhibition of binding at MYLK3 (human) and at RPS6KA1 KD1 (human) was below 50% throughout. Further, the inhibition at CDK19 (human) and at MAP3K12 (human) was below 50% throughout.
At MAP3K5 (human), `O[C@H]1CC[C@H](Nc2nccc(-c3n[nH]c4ccccc34)n2)CC1` had an inhibition of binding below 50%.
Molecule `O[C@H]1CC[C@H](Nc2nccc(-n3ccc4ccccc43)n2)CC1` showed an inhibition of binding on RPS6KA1 KD1 (human) below 50%. At MAP3K12 (human), this molecule gave an inhibition below 50%.
